Experimental findings from patent US10875872B2, “Heteroaryl amide compounds as sting activators” (Incyte Corporation, priority 2018, dated 2020) are described below.

Bounds are passed on as bounds.

In the assay the test system is IRF3. The assay is described as follows: IRF3 activation assay in THP-1 Dual cells (QUANTI-Blue reporter). The format is cell-based. The settings on record: Homo sapiens, THP1-Dual, 24 hours incubation, culture supernatant, absorbance at 620-655 nm. The procedure:
THP-1 Dual Cells (Invivogen) were maintained in RPMI1640 medium with addition of 10% FBS, 100 μg/mL zeocin, 10 μg/mL blasticidin. Cells were added in a 96-well flat bottom assay plate at 100,000 per well in 100 μL complete RPMI medium. Test compounds were prepared by serial dilution in complete RPMI medium and 100 μL test compounds were transferred to each corresponding well. The assay plate was incubated at 37° C., 5% CO2 for 24 hours. After the overnight incubation, 20 μL of the culture supernatants were collected, followed by addition of 180 μL of QUANTI-Blue (Invivogen) to assess IRF3 activity. The amount of IRF3 activation was assessed by reading the absorbance at 620-655 nm with a microplate reader 2 hours later. The culture supernatant from the untreated THP-1 cells was used as the negative control. To determine the NF-κB activation, another 20 μL of culture supernatant were transferred to a 96-well white plate, followed by addition of 50 μL of Quanti-Lucim assay solution (Invivogen). The amount of NF-κB activation induced by the test compounds were determined by the luminescence above the untreated control. EC50 determination was performed by fitting the curve of percent control activity versus the log of the compound concentration using the GraphPad Prism 6.0 software.
In turn, `CCn1nc(C)cc1C(=O)Nc1nc2cc(C(N)=O)cc(C)c2n1C/C=C/Cn1c(NC(=O)c2cc(C)nn2CC)nc2cc(C(N)=O)c3c(c21)OCCO3` [Example 1, (E)-1-(4-(5-carbamoyl-2-(1-ethyl-3-methyl-1H-pyrazole-5-carboxamido)-7-methyl-1H-benzo[d]imidazol-1-yl)but-2-en-1-yl)-2-(1-ethyl-3-methyl-1H-pyrazole-5-carboxamido)-7,8-dihydro-1H-[1,4]dioxino[2′,3′:3,4]benzo[1,2-d]imidazole-5-carboxamide] displayed an EC50 of 0.5 to 1 µM.

`CCn1nc(C)cc1C(=O)Nc1nc2cc(C(N)=O)cc(OCCCOC(=O)NCCC(=O)O)c2n1C/C=C/Cn1c(NC(=O)c2cc(C)nn2CC)nc2cc(C(N)=O)c3ccoc3c21` [Example 3, (E)-3-(((3-((5-carbamoyl-1-(4-(5-carbamoyl-2-(1-ethyl-3-methyl-1H-pyrazole-5-carboxamido)-1H-benzofuro[6,7-d]imidazol-1-yl)but-2-en-1-yl)-2-(1-ethyl-3-methyl-1H-pyrazole-5-carboxamido)-1H-benzo[d]imidazol-7-yl)oxy)propoxy)carbonyl)amino)propanoic acid] yielded an EC50 of under 0.1 µM.

For the molecule `CCn1nc(C)cc1C(=O)Nc1nc2cc(C(N)=O)cc(C)c2n1C/C=C/Cn1c(NC(=O)c2cc(C)nn2CC)nc2cc(C(N)=O)c3ccoc3c21` [Example 2, (E)-1-(4-(5-carbamoyl-2-(1-ethyl-3-methyl-1H-pyrazole-5-carboxamido)-7-methyl-1H-benzo[d]imidazol-1-yl)but-2-en-1-yl)-2-(1-ethyl-3-methyl-1H-pyrazole-5-carboxamido)-1H-benzofuro[6,7-d]imidazole-5-carboxamide], the EC50 is under 0.1 µM.

What is called EC50 is the concentration at which the effect is half-maximal.
